Measurements reported in article PMC10416055, “Structural basis of bidirectional allostery across the heme in a cytochrome P450 enzyme” (The Journal of Biological Chemistry, 2023).

Test system: CYP121

Row | Compound | absorbance (Soret peak) of ligand-bound CYP121 [nm]
1 | Clc1ccccc1C(c1ccccc1)(c1ccccc1)n1ccnc1 [clotrimazole] | 424
2 | CC(=O)N1CCN(c2ccc(OCC3COC(Cn4ccnc4)(c4ccc(Cl)cc4Cl)O3)cc2)CC1 (centres unmarked) [ketoconazole] | 421
